From ChEMBL document CHEMBL1152642, “Semisynthetic latrunculin B analogs: studies of actin docking support a proposed mechanism for latrunculin bioactivity” (Bioorg Med Chem, 2009)
The source made the active and inactive calls. The rule behind the calls is not given here.

Legend:
Format in all cases: functional, organism-based
Aspergillus flavus = assay: Antimicrobial activity against Aspergillus flavus NRRL 501 by twofold dilution method
Saccharomyces cerevisiae = assay: Antimicrobial activity against Saccharomyces cerevisiae NRRL Y2034 by twofold dilution method
Candida albicans = assay: Antimicrobial activity against Candida albicans by twofold dilution method

SMILES | Activity (Aspergillus flavus) | Activity (Saccharomyces cerevisiae) | Activity (Candida albicans)
C/C1=C/C(=O)O[C@@H]2C[C@@H](CC[C@H](C)/C=C\CC1)O[C@@](O)([C@H]1CSC(=O)N1)C2 | Active | Active | Active
CCCCCCN1C(=O)SC[C@H]1[C@@]1(OC)C[C@H]2C[C@@H](CC[C@H](C)/C=C\CC/C(C)=C\C(=O)O2)O1 | inactive | inactive | inactive
CCCCCCCCCCN1C(=O)SC[C@H]1[C@@]1(O)C[C@H]2C[C@@H](CC[C@H](C)/C=C\CC/C(C)=C\C(=O)O2)O1 | inactive | inactive | inactive
CCCCCN1C(=O)SC[C@H]1[C@@]1(OC)C[C@H]2C[C@@H](CC[C@H](C)/C=C\CC/C(C)=C\C(=O)O2)O1 | inactive | inactive | inactive
C/C1=C/C(=O)O[C@@H]2C[C@@H](CC[C@H](C)/C=C\C=C\CC1)O[C@@](O)([C@@H]1CSC(=O)N1)C2 | Active | Active | Active
CCCCCCCCN1C(=O)SC[C@H]1[C@@]1(OC)C[C@H]2C[C@@H](CC[C@H](C)/C=C\CC/C(C)=C\C(=O)O2)O1 | inactive | inactive | inactive
C/C1=C/C(=O)O[C@@H]2CC(CC[C@H](C)/C=C\C=C\CC1)O[C@@](O)([C@H]1CSC(=O)N1)C2 | Active | Active | Active
C/C1=C/C(=O)O[C@@H]2C[C@@H](CC[C@H](C)/C=C\CC1)O[C@@](O)([C@@H]1CSC(=O)N1)C2 | Active | Active | Active
CO[C@]1([C@@H]2CSC(=O)N2C)C[C@H]2C[C@@H](CC[C@H](C)/C=C\CC/C(C)=C\C(=O)O2)O1 | inactive | inactive | inactive
CCCCCCCCCN1C(=O)SC[C@H]1[C@@]1(OC)C[C@H]2C[C@@H](CC[C@H](C)/C=C\CC/C(C)=C\C(=O)O2)O1 | inactive | inactive | inactive
CO[C@]1([C@@H]2CSC(=O)N2)C[C@H]2C[C@@H](CC[C@H](C)/C=C\CC/C(C)=C\C(=O)O2)O1 | inactive | inactive | inactive
CCCCCCCCCCN1C(=O)SC[C@H]1[C@@]1(OC)C[C@H]2C[C@@H](CC[C@H](C)/C=C\CC/C(C)=C\C(=O)O2)O1 | inactive | inactive | inactive
